Test [1] concerns the target T1, TRAF6-Ubc13 binding in HEK293T cells (Homo sapiens, UniProt Q9Y4K3).
T1 construct: RING-Zincfinger1 (RZ1) domain (residues 50-159) of human TRAF6 wildtype; expressed in transfected cells; host or cells: HEK 293T
T1 sequence (Q9Y4K3 50-159): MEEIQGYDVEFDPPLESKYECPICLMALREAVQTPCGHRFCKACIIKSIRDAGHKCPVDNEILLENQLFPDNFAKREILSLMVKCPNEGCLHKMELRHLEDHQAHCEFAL
Kind of test: Co-immunoprecipitation of HA-TRAF6 and Ubc13 in HEK 293T cells. It is filed as cell-based. The method, then:
To study the interaction of TRAF6 and Ubc13 in cells, 1×10^6 293T cells were seeded and after 18 hours cells were transfected with 1 μg pEF-HA empty or pEF-HA-TRAF6 RZ1 plasmid using the X-tremeGENE HP DNA transfection reagent (Roche). 6 hours upon transfection, cells were treated with compound or DMSO. After 42 hours further incubation, cells were harvested in Co-IP lysis buffer and HA-TRAF6 was immunoprecipitated with anti-HA affinity matrix (Roche). Binding of Ubc13 to TRAF6 was examined in Western Blot analysis.

Test [2] deals with primary human peripheral blood mononuclear cells (PBMCs). The test is described as follows: Human PBMC cytokine secretion (ELISA). It is filed as cell-based. The method, then:
For measurement of cytokine secretion, 2×10^5 Jurkat T-cells or primary CD4^+ T-cells or human PBMCs per sample were seeded, treated with compound for 6 hours and stimulated as indicated. 20 hours after stimulation, supernatants were harvested and analyzed with the IL-2, IL-1β and TNFα Ready-Set-Go! ELISA (2nd Generation) kits provided by Affymatrix eBioscience.
For isolation of peripheral blood mononuclear cells (PBMCs) from 50 mL human blood of three different donors, blood was mixed with 800 units of Heparin (Sigma-Aldrich) and centrifuged at 300×g for 10 minutes without brake. After removal of the plasma fraction, buffy coat was diluted in 2 volumes PBS and added on top of 15 ml Lymphoprep (STEMCELL technologies). After centrifugation at 160×g for 20 minutes at room temperature without brake, platelets were removed and the cell suspension was centrifuged again at 350×g for 20 minutes without brake. Mononuclear cells from the intermediate layer were transferred to a new falcon and washed 3 times in PBS supplemented with 0.1% BSA and 2 mM EDTA. In the end, cells were resuspended in RPMI medium containing 10% FCS, 1% Penicillin/Streptomycin and 50 μM β-mercaptoethanol. Per sample, 2×10^5 cells were seeded and treated with compound for 6 hours. The cells were stimulated with either 1 μg/ml Lipopolysaccharide (LPS) or CD3/CD28 (1 μg hCD3 (IgG2A), 4 μg hCD28 (IgG1), […] and […]) or 20 ng/IL-1β. Supernatants for analysis of cytokine secretion were harvested 20 hours after stimulation.
Background: ELISA stands for enzyme-linked immunosorbent assay.

Entries after “also recorded” stand apart in the source; their conditions may differ.

Turning to `Cc1nn(-c2ccc3nnc(C)n3n2)c(C)c1CCC(=O)N1CCC(Cc2ccccc2)CC1` [Example C25-140, 1-(4-Benzylpiperidin-1-yl)-3-(3,5-dimethyl-1-(3-methyl-[1,2,4]-triazolo-[4,3-b]-pyridazin-6-yl)-1H-pyrazol-4-yl)-propan-1-one], the “interaction of endogenous Ubc13 with HA-tagged TRAF6 (co-immunoprecipitation)” value in test [1] was “reduced interaction; also recorded: most active analogs; also recorded: dose-dependently decreases; also recorded: demonstrated inhibition of TRAF6-Ubc13 binding”. For the same compound, in test [2] (CD3/CD28 stimulation), the “secretion of IL-2 and TNFα” value was “decreased levels of IL-2 and TNFα secretion”. In addition, the “secretion of IL-6 and TNFα” value in test [2] (IL-1β stimulation) is listed as “reduced secretion; also recorded: attenuated”. Moreover, in test [2] (LPS stimulation), the “secretion of IL-1β and TNFα” value was “reduced secretion; also recorded: reduced levels of IL-1β and TNFα cytokines”.

The values are drawn from US12240854B2, “TRAF 6 inhibitors” (Helmholtz Zentrum München - Deutsches Forschungszentrum für …, priority 2018, dated 2025).
